Source: patent US7541020B2, “Aminoalkyl glucosaminide phosphate compounds and their use as adjuvants and immunoeffectors” (priority 1997, dated 2009)
Read-outs that look alike come from different tables or passages of the source.

Assays:
E.G7 (OVA) cells = conditions: s.c. 25 μg OVA in AGP preparation, spleen cells 21 days later
influenza A/HK/68 = assay type: in vivo, ICR mice
[1] = 25 μg AGP + 1 HAU FI-Flu in 0.2% TEoA, once, bled day 14, Table 11

Row | Substance | % Cytotoxicity (E.G7 (OVA) cells; E:T 12.5:1) [%] | % Cytotoxicity (E.G7 (OVA) cells; E:T 25:1) [%] | % Cytotoxicity (E.G7 (OVA) cells; E:T 50:1) [%] | further results
1 | N-[(R)-3-Hexanoyloxytetradecanoyl]-O-[2-deoxy-4-O-phosphono-2-[(R)-3-decanoyloxytetradecanoylamino]-3-O-[(R)-3-hexanoyloxytetradecanoyl]-α-D-glucopyranosyl]-L-serine Triethylammonium Salt [B39] | 13 | 21 | 33 | 
2 | N-[(R)-3-Decanoyloxytetradecanoyl]-O-[2-deoxy-4-O-phosphono-2-[(R)-3-hexanoyloxytetradecanoylamino]-3-O-[(R)-3-hexanoyloxytetradecanoyl]-α-D-glucopyranosyl]-L-serine Triethylammonium Salt [B40] | 8 | 12 | 20 | 
3 | N-[(R)-3-Decanoyloxytetradecanoyl]-O-[2-deoxy-4-O-phosphono-2-[(R)-3-decanoyloxytetradecanoylamino]-3-O-[(R)-3-hexanoyloxytetradecanoyl]-α-D-glucopyranosyl]-L-serine Triethylammonium Salt [B35] | 2 | 5 | 9 | 
4 | N-[(R)-3-Hexanoyloxytetradecanoyl]-O-[2-deoxy-4-O-phosphono-2-[(R)-3-hexanoyloxytetradecanoylamino]-3-O-[(R)-3-decanoyloxytetradecanoyl]-α-D-glucopyranosyl]-L-serine Triethylammonium Salt [B38] | 16 | 25 | 38 | 
5 | N-[(R)-3-Heptanoyloxytetradecanoyl]-O-[2-deoxy-4-O-phosphono-2-[(R)-3-heptanoyloxytetradecanoylamino]-3-O-[(R)-3-heptanoyloxytetradecanoyl]-β-D-glucopyranosyl]-L-serine Triethylammonium Salt [B18] | 15 | 20 | 36 | Titer^−1 IgG1 (influenza A/HK/68; [1]): 800; Titer^−1 IgG2a (influenza A/HK/68; [1]): 800; Titer^−1 IgG2b (influenza A/HK/68; [1]): 400; Titer^−1 Total IgG (influenza A/HK/68; [1]): 800; Percent Survival (influenza A/HK/68; […], mortality 21 days, Table 11): 20%
6 | N-[(R)-3-Hydroxytetradecanoyl]-O-[2-deoxy-4-O-phosphono-2-[(R)-3-dodecanoyloxytetradecanoylamino]-3-O-[(R)-3-tetradecanoyloxytetradecanoyl]-α-D-glucopyranosyl]-L-serine Triethylammonium Salt [B43] | 6 | 12 | 19 | 
7 | N-[(R)-3-Hexanoyloxytetradecanoyl]-O-[2-deoxy-4-O-phosphono-2-[(R)-3-decanoyloxytetradecanoylamino]-3-O-[(R)-3-decanoyloxytetradecanoyl]-α-D-glucopyranosyl]-L-serine Triethylammonium Salt [B37] | 6 | 8 | 12 | 
8 | 3-Hydroxy-(S)-2-[(R)-3-heptanoyloxytetradecanoylamino]propyl 2-Deoxy-4-O-phosphono-2-[(R)-3-heptanoyloxytetradecanoylamino]-3-O-[(R)-3-heptanoyloxytetradecanoyl]-β-D-glucopyranoside Triethylammonium Salt [B8] | 15 | 20 | 36 | Percent Survival (influenza A/HK/68; mouse, in vivo): 80%; Titer−1 IgG1 (influenza A/HK/68; mouse, in vivo): 3200; Titer−1 IgG2a (influenza A/HK/68; mouse, in vivo): 400; Titer−1 IgG2b (influenza A/HK/68; mouse, in vivo): 1600; Titer−1 Total IgG (influenza A/HK/68; mouse, in vivo): 6400
9 | N-[(R)-3-Decanoyloxytetradecanoyl]-O-[2-deoxy-4-O-phosphono-2-[(R)-3-hexanoyloxytetradecanoylamino]-3-O-[(R)-3-decanoyloxytetradecanoyl]-α-D-glucopyranosyl]-L-serine Triethylammonium Salt [B36] | 4 | 7 | 13 | 
